Data reported in PubChem BioAssay (NCI).
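Briefly, cells in 96-well plates were exposed to five compound concentrations for 48 h, and endpoints were estimated by linear interpolation. At the TGI there is no net growth.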

Assays:
Experiment in all cases: inhibition of tumour cell growth, NCI panel, 48 h
SF-539 CNS = test system: SF-539 CNS
786-0 renal = test system: 786-0 renal
HCT-15 colon = test system: HCT-15 colon
SR leukemia = test system: SR leukemia
SF-295 CNS = test system: SF-295 CNS
DU-145 prostate = test system: DU-145 prostate
OVCAR-5 ovarian = test system: OVCAR-5 ovarian
ACHN renal = test system: ACHN renal
SK-OV-3 ovarian = test system: SK-OV-3 ovarian
HOP-92 NSCLC = test system: HOP-92 NSCLC
HL-60(TB) leukemia = test system: HL-60(TB) leukemia
LOX IMVI melanoma = test system: LOX IMVI melanoma
OVCAR-4 ovarian = test system: OVCAR-4 ovarian
SF-268 CNS = test system: SF-268 CNS
EKVX NSCLC = test system: EKVX NSCLC
SK-MEL-5 melanoma = test system: SK-MEL-5 melanoma
SW-620 colon = test system: SW-620 colon
SK-MEL-28 melanoma = test system: SK-MEL-28 melanoma
PC-3 prostate = test system: PC-3 prostate
NCI-H23 lung = test system: NCI-H23 lung
SK-MEL-2 melanoma = test system: SK-MEL-2 melanoma
BT-549 breast = test system: BT-549 breast
UACC-62 melanoma = test system: UACC-62 melanoma
MDA-N = test system: MDA-N
OVCAR-3 ovarian = test system: OVCAR-3 ovarian
CCRF-CEM leukemia = test system: CCRF-CEM leukemia
MDA-MB-231 breast = test system: MDA-MB-231 breast
CAKI-1 renal = test system: CAKI-1 renal
MCF7 breast = test system: MCF7 breast
HCC-2998 colon = test system: HCC-2998 colon
UO-31 renal = test system: UO-31 renal
SN12C renal = test system: SN12C renal
OVCAR-8 ovarian = test system: OVCAR-8 ovarian
RPMI-8226 leukemia = test system: RPMI-8226 leukemia
U251 CNS = test system: U251 CNS
SNB-75 CNS = test system: SNB-75 CNS
A498 renal = test system: A498 renal
NCI-H460 lung = test system: NCI-H460 lung
COLO 205 colon = test system: COLO 205 colon
TK-10 renal = test system: TK-10 renal
T-47D breast = test system: T-47D breast
MALME-3M melanoma = test system: MALME-3M melanoma
HT29 colon = test system: HT29 colon
NCI/ADR-RES ovarian = test system: NCI/ADR-RES ovarian
HS 578T breast = test system: HS 578T breast
MDA-MB-435 = test system: MDA-MB-435
KM12 colon = test system: KM12 colon
IGROV1 ovarian = test system: IGROV1 ovarian
RXF 393 renal = test system: RXF 393 renal
SNB-19 CNS = test system: SNB-19 CNS
NCI-H522 lung = test system: NCI-H522 lung
NCI-H226 lung = test system: NCI-H226 lung
A549 NSCLC = test system: A549 NSCLC
UACC-257 melanoma = test system: UACC-257 melanoma
HOP-62 NSCLC = test system: HOP-62 NSCLC
K-562 leukemia = test system: K-562 leukemia
MOLT-4 leukemia = test system: MOLT-4 leukemia
HCT-116 colon = test system: HCT-116 colon
M14 melanoma = test system: M14 melanoma

Which results are given for COc1ccc(/C=C/C(=N/NC(=O)N/N=C(/C=C/c2ccc(OC)cc2)C(C)C)C(C)C)cc1?
TGI (SF-539 CNS): > 100 µM; TGI (786-0 renal): > 100 µM; TGI (HCT-15 colon): > 100 µM; TGI (SR leukemia): > 100 µM; TGI (SF-295 CNS): > 100 µM; TGI (DU-145 prostate): > 100 µM; TGI (OVCAR-5 ovarian): > 100 µM; TGI (ACHN renal): > 100 µM; TGI (SK-OV-3 ovarian): > 100 µM; TGI (HOP-92 NSCLC): > 100 µM; TGI (HL-60(TB) leukemia): > 100 µM; TGI (LOX IMVI melanoma): > 100 µM; TGI (OVCAR-4 ovarian): > 100 µM; TGI (SF-268 CNS): > 100 µM; TGI (EKVX NSCLC): > 100 µM; TGI (SK-MEL-5 melanoma): > 100 µM; TGI (SW-620 colon): > 100 µM; TGI (SK-MEL-28 melanoma): > 100 µM; TGI (PC-3 prostate): > 100 µM; TGI (NCI-H23 lung): > 100 µM; TGI (SK-MEL-2 melanoma): > 100 µM; TGI (BT-549 breast): > 100 µM; TGI (UACC-62 melanoma): > 100 µM; TGI (MDA-N): > 100 µM; TGI (OVCAR-3 ovarian): > 100 µM; TGI (CCRF-CEM leukemia): > 100 µM; TGI (MDA-MB-231 breast): > 100 µM; TGI (CAKI-1 renal): > 100 µM; TGI (MCF7 breast): > 100 µM; TGI (HCC-2998 colon): > 100 µM; TGI (UO-31 renal): > 100 µM; TGI (SN12C renal): > 100 µM; TGI (OVCAR-8 ovarian): > 100 µM; TGI (RPMI-8226 leukemia): > 100 µM; TGI (U251 CNS): > 100 µM; TGI (SNB-75 CNS): > 100 µM; TGI (A498 renal): > 100 µM; TGI (NCI-H460 lung): > 100 µM; TGI (COLO 205 colon): > 100 µM; TGI (TK-10 renal): > 100 µM; TGI (T-47D breast): > 100 µM; TGI (MALME-3M melanoma): > 100 µM; TGI (HT29 colon): > 100 µM; TGI (NCI/ADR-RES ovarian): > 100 µM; TGI (HS 578T breast): > 100 µM; TGI (MDA-MB-435): > 100 µM; TGI (KM12 colon): > 100 µM; TGI (IGROV1 ovarian): > 100 µM; TGI (RXF 393 renal): > 100 µM; TGI (SNB-19 CNS): > 100 µM; TGI (NCI-H522 lung): > 100 µM; TGI (NCI-H226 lung): > 100 µM; TGI (A549 NSCLC): > 100 µM; TGI (UACC-257 melanoma): > 100 µM; TGI (HOP-62 NSCLC): > 100 µM; TGI (K-562 leukemia): > 100 µM; TGI (MOLT-4 leukemia): > 100 µM; TGI (HCT-116 colon): > 100 µM; TGI (M14 melanoma): > 100 µM

With CC(=O)N1c2ccccc2C2=NN=C(N(C)C)SC21 (stereo unspecified) as the compound, how does the TGI (SF-539 CNS) read?
The TGI was 18.3 µM.

What about the TGI (786-0 renal) of the same compound?
The TGI was 12.5 µM.

And the TGI (HCT-15 colon)?
Its TGI is 15.6 µM.

What about the TGI (SR leukemia) of the same compound?
Its TGI is 21.2 µM.

And the TGI (SF-295 CNS)?
Its TGI is 8.16 µM.

What about the TGI (DU-145 prostate) of the same compound?
The TGI was 7.45 µM.

What about the TGI (OVCAR-5 ovarian) of the same compound?
Its TGI is 18.1 µM.

And the TGI (ACHN renal)?
The TGI was 10.4 µM.

And the TGI (HL-60(TB) leukemia)?
Its TGI is 5.07 µM.

And the TGI (LOX IMVI melanoma)?
Its TGI is 14.1 µM.

What about the TGI (OVCAR-4 ovarian) of the same compound?
Its TGI is 29.8 µM.

What about the TGI (SF-268 CNS) of the same compound?
The TGI was 16 µM.

And the TGI (EKVX NSCLC)?
The TGI was 12.8 µM.

What about the TGI (SW-620 colon) of the same compound?
The TGI was 20 µM.

And the TGI (SK-MEL-28 melanoma)?
The TGI was 15.3 µM.

What about the TGI (PC-3 prostate) of the same compound?
The TGI was 18 µM.

What about the TGI (NCI-H23 lung) of the same compound?
The TGI was 19.3 µM.

What about the TGI (SK-MEL-2 melanoma) of the same compound?
The TGI was 6.36 µM.

And the TGI (BT-549 breast)?
Its TGI is 24.2 µM.

And the TGI (MDA-N)?
Its TGI is 19.7 µM.

And the TGI (OVCAR-3 ovarian)?
Its TGI is 9.46 µM.

What about the TGI (CCRF-CEM leukemia) of the same compound?
The TGI was 5.31 µM.

What about the TGI (MDA-MB-231 breast) of the same compound?
The TGI was 11 µM.

And the TGI (MCF7 breast)?
Its TGI is 14.9 µM.

And the TGI (HCC-2998 colon)?
Its TGI is 12.5 µM.

What about the TGI (UO-31 renal) of the same compound?
Its TGI is 9.89 µM.

And the TGI (SN12C renal)?
The TGI was 6.93 µM.

What about the TGI (OVCAR-8 ovarian) of the same compound?
Its TGI is 12.1 µM.

What about the TGI (RPMI-8226 leukemia) of the same compound?
Its TGI is 81.3 µM.

What about the TGI (U251 CNS) of the same compound?
The TGI was 10.8 µM.

What about the TGI (SNB-75 CNS) of the same compound?
The TGI was 26.4 µM.

What about the TGI (A498 renal) of the same compound?
The TGI was 11.7 µM.

What about the TGI (NCI-H460 lung) of the same compound?
The TGI was 13.3 µM.

And the TGI (COLO 205 colon)?
The TGI was 12.9 µM.

What about the TGI (TK-10 renal) of the same compound?
Its TGI is 21 µM.

What about the TGI (T-47D breast) of the same compound?
Its TGI is 14.9 µM.

What about the TGI (MALME-3M melanoma) of the same compound?
The TGI was 12.9 µM.

And the TGI (HT29 colon)?
The TGI was 20.5 µM.

And the TGI (NCI/ADR-RES ovarian)?
The TGI was 10.4 µM.

What about the TGI (HS 578T breast) of the same compound?
Its TGI is 52.4 µM.

What about the TGI (MDA-MB-435) of the same compound?
Its TGI is 31.3 µM.

And the TGI (KM12 colon)?
Its TGI is 11.2 µM.

What about the TGI (SNB-19 CNS) of the same compound?
Its TGI is 23.5 µM.

What about the TGI (NCI-H522 lung) of the same compound?
The TGI was 6.68 µM.

What about the TGI (NCI-H226 lung) of the same compound?
Its TGI is 19.5 µM.

What about the TGI (A549 NSCLC) of the same compound?
Its TGI is 11.8 µM.

And the TGI (UACC-257 melanoma)?
The TGI was 12.7 µM.

And the TGI (HOP-62 NSCLC)?
The TGI was 23.4 µM.

What about the TGI (K-562 leukemia) of the same compound?
The TGI was 18.8 µM.

And the TGI (MOLT-4 leukemia)?
Its TGI is greater than 100 µM.

What about the TGI (HCT-116 colon) of the same compound?
Its TGI is 10.1 µM.

And the TGI (M14 melanoma)?
The TGI was 7.97 µM.
